Assay results published in ChEMBL document CHEMBL5550178, “Synthesis and anticancer properties of novel dolastatin 10 analogs featuring five-membered heterocyclic rings with a linkable group at the C-terminus” (Bioorg Med Chem, 2024).
Non-standard residues stand in square brackets, D forms with d. Residues, ends and D or L forms follow the SMILES beside them. Dolaproine = CO[C@@H]([C@@H]1CCCN1)[C@@H](C)C(=O)O; Dil = CC[C@H](C)[C@H](NC)[C@@H](CC(=O)O)OC; NMeV = CN[C@H](C(=O)O)C(C)C

Tests used:
[1] = Drug uptake in human PC-3 cells assessed as increase in fluorescence intensity at upto 1000 nM by Hoechst nuclear dye based fluorescent microscopic analysis; assay type: ADME, cell-based; conditions: pc-3, 1 µM
PC-3 [2] = experiment: Induction of cell cycle arrest in human PC-3 cells assessed as accumulation of cells at S phase at 50 nM measured after 4 days by PI staining based flow cytometry analysis (reference value: 17.9%); assay type: functional; conditions: time 4 day
PC-3 [3] = experiment: Induction of cell cycle arrest in human PC-3 cells assessed as accumulation of cells at G1/G0 phase at 1000 nM measured after 4 days by PI staining based flow cytometry analysis (reference value: 67.6%); assay type: functional; conditions: time 4 day
PC-3 [4] = experiment: Induction of cell cycle arrest in human PC-3 cells assessed as accumulation of cells at G2/M phase at 50 nM measured after 8 days by PI staining based flow cytometry analysis (reference value: 13.9%); assay type: functional; conditions: time 8 day
PC-3 [5] = experiment: Induction of cell cycle arrest in human PC-3 cells assessed as accumulation of cells at G1/G0 phase at 50 nM measured after 6 days by PI staining based flow cytometry analysis (reference value: 79.8%); assay type: functional; conditions: time 6 day
PC-3 [6] = experiment: Induction of cell cycle arrest in human PC-3 cells assessed as accumulation of cells at G2/M phase at 50 nM measured after 6 days by PI staining based flow cytometry analysis (reference value: 9.96%); assay type: functional; conditions: time 6 day
PC-3 [7] = experiment: Induction of cell cycle arrest in human PC-3 cells assessed as accumulation of cells at G1/G0 phase at 1000 nM measured after 8 days by PI staining based flow cytometry analysis (reference value: 73.2%); assay type: functional; conditions: time 8 day
PC-3 [8] = experiment: Induction of cell cycle arrest in human PC-3 cells assessed as accumulation of cells at G1/G0 phase at 1 nM measured after 8 days by PI staining based flow cytometry analysis (reference value: 73.2%); assay type: functional; conditions: time 8 day
PC-3 [9] = experiment: Induction of cell cycle arrest in human PC-3 cells assessed as accumulation of cells at G2/M phase at 1000 nM measured after 4 days by PI staining based flow cytometry analysis (reference value: 10.7%); assay type: functional; conditions: time 4 day
PC-3 [10] = experiment: Induction of cell cycle arrest in human PC-3 cells assessed as accumulation of cells at G2/M phase at 50 nM measured after 4 days by PI staining based flow cytometry analysis (reference value: 10.7%); assay type: functional; conditions: time 4 day
PC-3 [11] = experiment: Induction of cell cycle arrest in human PC-3 cells assessed as accumulation of cells at S phase at 50 nM measured after 8 days by PI staining based flow cytometry analysis (reference value: 12.9%); assay type: functional; conditions: time 8 day
PC-3 [12] = experiment: Induction of cell cycle arrest in human PC-3 cells assessed as accumulation of cells at S phase at 50 nM measured after 6 days by PI staining based flow cytometry analysis (reference value: 8.60%); assay type: functional; conditions: time 6 day
PC-3 [13] = experiment: Induction of cell cycle arrest in human PC-3 cells assessed as accumulation of cells at G1/G0 phase at 50 nM measured after 8 days by PI staining based flow cytometry analysis (reference value: 73.2%); assay type: functional; conditions: time 8 day
PC-3 [14] = experiment: Induction of cell cycle arrest in human PC-3 cells assessed as accumulation of cells at G2/M phase at 1000 nM measured after 8 days by PI staining based flow cytometry analysis (reference value: 13.9%); assay type: functional; conditions: time 8 day
PC-3 [15] = experiment: Induction of cell cycle arrest in human PC-3 cells assessed as accumulation of cells at S phase at 1000 nM measured after 6 days by PI staining based flow cytometry analysis (reference value: 8.60%); assay type: functional; conditions: time 6 day
PC-3 [16] = experiment: Induction of cell cycle arrest in human PC-3 cells assessed as accumulation of cells at G2/M phase at 1 nM measured after 4 days by PI staining based flow cytometry analysis (reference value: 10.7%); assay type: functional; conditions: time 4 day
PC-3 [17] = experiment: Induction of cell cycle arrest in human PC-3 cells assessed as accumulation of cells at G1/G0 phase at 1 nM measured after 6 days by PI staining based flow cytometry analysis (reference value: 79.8%); assay type: functional; conditions: time 6 day
PC-3 [18] = experiment: Induction of cell cycle arrest in human PC-3 cells assessed as accumulation of cells at S phase at 1000 nM measured after 8 days by PI staining based flow cytometry analysis (reference value: 12.9%); assay type: functional; conditions: time 8 day
PC-3 [19] = experiment: Induction of cell cycle arrest in human PC-3 cells assessed as accumulation of cells at S phase at 1 nM measured after 4 days by PI staining based flow cytometry analysis (reference value: 17.9%); assay type: functional; conditions: time 4 day
PC-3 [20] = experiment: Induction of cell cycle arrest in human PC-3 cells assessed as accumulation of cells at S phase at 1 nM measured after 8 days by PI staining based flow cytometry analysis (reference value: 12.9%); assay type: functional; conditions: time 8 day
PC-3 [21] = experiment: Induction of cell cycle arrest in human PC-3 cells assessed as accumulation of cells at S phase at 1000 nM measured after 4 days by PI staining based flow cytometry analysis (reference value: 17.9%); assay type: functional; conditions: time 4 day
PC-3 [22] = experiment: Induction of cell cycle arrest in human PC-3 cells assessed as accumulation of cells at G2/M phase at 1 nM measured after 6 days by PI staining based flow cytometry analysis (reference value: 9.96%); assay type: functional; conditions: time 6 day
PC-3 [23] = experiment: Induction of cell cycle arrest in human PC-3 cells assessed as accumulation of cells at G1/G0 phase at 50 nM measured after 4 days by PI staining based flow cytometry analysis (reference value: 67.6%); assay type: functional; conditions: time 4 day
PC-3 [24] = experiment: Induction of cell cycle arrest in human PC-3 cells assessed as accumulation of cells at G2/M phase at 1 nM measured after 8 days by PI staining based flow cytometry analysis (reference value: 13.9%); assay type: functional; conditions: time 8 day
PC-3 [25] = experiment: Induction of cell cycle arrest in human PC-3 cells assessed as accumulation of cells at G2/M phase at 1000 nM measured after 6 days by PI staining based flow cytometry analysis (reference value: 9.96%); assay type: functional; conditions: time 6 day
PC-3 [26] = experiment: Induction of cell cycle arrest in human PC-3 cells assessed as accumulation of cells at G1/G0 phase at 1 nM measured after 4 days by PI staining based flow cytometry analysis (reference value: 67.6%); assay type: functional; conditions: time 4 day
PC-3 [27] = experiment: Induction of cell cycle arrest in human PC-3 cells assessed as accumulation of cells at S phase at 1 nM measured after 6 days by PI staining based flow cytometry analysis (reference value: 8.60%); assay type: functional; conditions: time 6 day
PC-3 [28] = experiment: Induction of cell cycle arrest in human PC-3 cells assessed as accumulation of cells at G1/G0 phase at 1000 nM measured after 6 days by PI staining based flow cytometry analysis (reference value: 79.8%); assay type: functional; conditions: time 6 day

## CC[C@H](C)[C@@H]([C@@H](CC(=O)N1CCC[C@H]1[C@H](OC)[C@@H](C)C(=O)N[C@@H](Cc1ccccc1)c1nc(CNC(=O)CCC(=O)N2CCN(C(=O)c3ccccc3-c3c4ccc(=[N+](CC)CC)cc-4oc4cc(N(CC)CC)ccc34)CC2)cs1)OC)N(C)C(=O)[C@@H](NC(=O)[C@H](C(C)C)N(C)C)C(C)C (stereo in doubt)
[1]
  Drug uptake: Active

## CC[C@H](C)[C@@H]([C@@H](CC(=O)N1CCC[C@H]1[C@H](OC)[C@@H](C)C(=O)N[C@@H](Cc1ccccc1)C(=O)O)OC)N(C)C(=O)[C@@H](NC(=O)[C@@H](NC)C(C)C)C(C)C (H-[NMeV]V[Dil][Dolaproine]F-OH)
PC-3 [2]
  Activity: 30.1%
PC-3 [3]
  Activity: 44.7%
PC-3 [4]
  Activity: 18.4%
PC-3 [5]
  Activity: 70.6%
PC-3 [6]
  Activity: 5.39%
PC-3 [7]
  Activity: 27.5%
PC-3 [8]
  Activity: 65.8%
PC-3 [9]
  Activity: 3.87%
PC-3 [10]
  Activity: 8.23%
PC-3 [11]
  Activity: 32%
PC-3 [12]
  Activity: 20.2%
PC-3 [13]
  Activity: 50.8%
PC-3 [14]
  Activity: 12.6%
PC-3 [15]
  Activity: 47.6%
PC-3 [16]
  Activity: 7.89%
PC-3 [17]
  Activity: 75.5%
PC-3 [18]
  Activity: 60.7%
PC-3 [19]
  Activity: 20.8%
PC-3 [20]
  Activity: 19%
PC-3 [21]
  Activity: 47.6%
PC-3 [22]
  Activity: 10.6%
PC-3 [23]
  Activity: 58.5%
PC-3 [24]
  Activity: 17.2%
PC-3 [25]
  Activity: 3.87%
PC-3 [26]
  Activity: 68.9%
PC-3 [27]
  Activity: 11.8%
PC-3 [28]
  Activity: 44.7%
